{"source": "PubChem BioAssay (NCI)", "test_in_all_cases": "NCI anticancer screen, dose series, 48 h", "key": {"786-0 renal": {"system": "786-0 renal"}, "A498 renal": {"system": "A498 renal"}, "A549 NSCLC": {"system": "A549 NSCLC"}, "ACHN renal": {"system": "ACHN renal"}, "CAKI-1 renal": {"system": "CAKI-1 renal"}, "CCRF-CEM leukemia": {"system": "CCRF-CEM leukemia"}, "COLO 205 colon": {"system": "COLO 205 colon"}, "DU-145 prostate": {"system": "DU-145 prostate"}, "EKVX NSCLC": {"system": "EKVX NSCLC"}, "HCC-2998 colon": {"system": "HCC-2998 colon"}, "HCT-116 colon": {"system": "HCT-116 colon"}, "HCT-15 colon": {"system": "HCT-15 colon"}, "HL-60(TB) leukemia": {"system": "HL-60(TB) leukemia"}, "HOP-62 NSCLC": {"system": "HOP-62 NSCLC"}, "HS 578T breast": {"system": "HS 578T breast"}, "HT29 colon": {"system": "HT29 colon"}, "IGROV1 ovarian": {"system": "IGROV1 ovarian"}, "K-562 leukemia": {"system": "K-562 leukemia"}, "KM12 colon": {"system": "KM12 colon"}, "LOX IMVI melanoma": {"system": "LOX IMVI melanoma"}, "M14 melanoma": {"system": "M14 melanoma"}, "MALME-3M melanoma": {"system": "MALME-3M melanoma"}, "MCF7 breast": {"system": "MCF7 breast"}, "MDA-MB-231 breast": {"system": "MDA-MB-231 breast"}, "MDA-MB-435": {"system": "MDA-MB-435"}, "MDA-N": {"system": "MDA-N"}, "NCI-H226 lung": {"system": "NCI-H226 lung"}, "NCI-H23 lung": {"system": "NCI-H23 lung"}, "NCI-H460 lung": {"system": "NCI-H460 lung"}, "NCI-H522 lung": {"system": "NCI-H522 lung"}, "NCI/ADR-RES ovarian": {"system": "NCI/ADR-RES ovarian"}, "OVCAR-3 ovarian": {"system": "OVCAR-3 ovarian"}, "OVCAR-4 ovarian": {"system": "OVCAR-4 ovarian"}, "OVCAR-5 ovarian": {"system": "OVCAR-5 ovarian"}, "OVCAR-8 ovarian": {"system": "OVCAR-8 ovarian"}, "PC-3 prostate": {"system": "PC-3 prostate"}, "RXF 393 renal": {"system": "RXF 393 renal"}, "SF-268 CNS": {"system": "SF-268 CNS"}, "SF-295 CNS": {"system": "SF-295 CNS"}, "SF-539 CNS": {"system": "SF-539 CNS"}, "SK-MEL-2 melanoma": {"system": "SK-MEL-2 melanoma"}, "SK-MEL-28 melanoma": {"system": "SK-MEL-28 melanoma"}, "SK-MEL-5 melanoma": {"system": "SK-MEL-5 melanoma"}, "SK-OV-3 ovarian": {"system": "SK-OV-3 ovarian"}, "SN12C renal": {"system": "SN12C renal"}, "SNB-19 CNS": {"system": "SNB-19 CNS"}, "SNB-75 CNS": {"system": "SNB-75 CNS"}, "SW-620 colon": {"system": "SW-620 colon"}, "T-47D breast": {"system": "T-47D breast"}, "TK-10 renal": {"system": "TK-10 renal"}, "U251 CNS": {"system": "U251 CNS"}, "UACC-257 melanoma": {"system": "UACC-257 melanoma"}, "UACC-62 melanoma": {"system": "UACC-62 melanoma"}}, "note": "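Growth conditions: 96-well plates. Treatment: test compound, 48 hours, 5 concentrations. Analysis: linear interpolation between bracketing concentrations; unreached endpoints set to highest concentration. At the TGI there is no net growth.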"}
{"smiles": "C[C@H]1ON2CCC[C@@H]2[C@@H]1C(=O)N1C2CC3CCC2(CS1(=O)=O)C3(C)C", "note": "(stereo partly drawn)", "values": [{"measurement": "TGI", "setting": "786-0 renal", "result": "> 100", "unit": "µM"}, {"measurement": "TGI", "setting": "A498 renal", "result": "> 100", "unit": "µM"}, {"measurement": "TGI", "setting": "A549 NSCLC", "result": "> 100", "unit": "µM"}, {"measurement": "TGI", "setting": "ACHN renal", "result": "> 100", "unit": "µM"}, {"measurement": "TGI", "setting": "CAKI-1 renal", "result": "> 100", "unit": "µM"}, {"measurement": "TGI", "setting": "CCRF-CEM leukemia", "result": "> 100", "unit": "µM"}, {"measurement": "TGI", "setting": "COLO 205 colon", "result": "> 100", "unit": "µM"}, {"measurement": "TGI", "setting": "DU-145 prostate", "result": "> 100", "unit": "µM"}, {"measurement": "TGI", "setting": "EKVX NSCLC", "result": "> 100", "unit": "µM"}, {"measurement": "TGI", "setting": "HCC-2998 colon", "result": "> 100", "unit": "µM"}, {"measurement": "TGI", "setting": "HCT-116 colon", "result": "> 100", "unit": "µM"}, {"measurement": "TGI", "setting": "HCT-15 colon", "result": "> 100", "unit": "µM"}, {"measurement": "TGI", "setting": "HL-60(TB) leukemia", "result": 26.6, "unit": "µM"}, {"measurement": "TGI", "setting": "HOP-62 NSCLC", "result": "> 100", "unit": "µM"}, {"measurement": "TGI", "setting": "HS 578T breast", "result": "> 100", "unit": "µM"}, {"measurement": "TGI", "setting": "HT29 colon", "result": "> 100", "unit": "µM"}, {"measurement": "TGI", "setting": "IGROV1 ovarian", "result": "> 100", "unit": "µM"}, {"measurement": "TGI", "setting": "K-562 leukemia", "result": "> 100", "unit": "µM"}, {"measurement": "TGI", "setting": "KM12 colon", "result": "> 100", "unit": "µM"}, {"measurement": "TGI", "setting": "LOX IMVI melanoma", "result": "> 100", "unit": "µM"}, {"measurement": "TGI", "setting": "M14 melanoma", "result": "> 100", "unit": "µM"}, {"measurement": "TGI", "setting": "MALME-3M melanoma", "result": "> 100", "unit": "µM"}, {"measurement": "TGI", "setting": "MCF7 breast", "result": "> 100", "unit": "µM"}, {"measurement": "TGI", "setting": "MDA-MB-231 breast", "result": "> 100", "unit": "µM"}, {"measurement": "TGI", "setting": "MDA-MB-435", "result": "> 100", "unit": "µM"}, {"measurement": "TGI", "setting": "MDA-N", "result": "> 100", "unit": "µM"}, {"measurement": "TGI", "setting": "NCI-H226 lung", "result": "> 100", "unit": "µM"}, {"measurement": "TGI", "setting": "NCI-H23 lung", "result": "> 100", "unit": "µM"}, {"measurement": "TGI", "setting": "NCI-H460 lung", "result": "> 100", "unit": "µM"}, {"measurement": "TGI", "setting": "NCI-H522 lung", "result": "> 100", "unit": "µM"}, {"measurement": "TGI", "setting": "NCI/ADR-RES ovarian", "result": "> 100", "unit": "µM"}, {"measurement": "TGI", "setting": "OVCAR-3 ovarian", "result": "> 100", "unit": "µM"}, {"measurement": "TGI", "setting": "OVCAR-4 ovarian", "result": "> 100", "unit": "µM"}, {"measurement": "TGI", "setting": "OVCAR-5 ovarian", "result": "> 100", "unit": "µM"}, {"measurement": "TGI", "setting": "OVCAR-8 ovarian", "result": "> 100", "unit": "µM"}, {"measurement": "TGI", "setting": "PC-3 prostate", "result": "> 100", "unit": "µM"}, {"measurement": "TGI", "setting": "RXF 393 renal", "result": "> 100", "unit": "µM"}, {"measurement": "TGI", "setting": "SF-268 CNS", "result": "> 100", "unit": "µM"}, {"measurement": "TGI", "setting": "SF-295 CNS", "result": "> 100", "unit": "µM"}, {"measurement": "TGI", "setting": "SF-539 CNS", "result": "> 100", "unit": "µM"}, {"measurement": "TGI", "setting": "SK-MEL-2 melanoma", "result": "> 100", "unit": "µM"}, {"measurement": "TGI", "setting": "SK-MEL-28 melanoma", "result": "> 100", "unit": "µM"}, {"measurement": "TGI", "setting": "SK-MEL-5 melanoma", "result": "> 100", "unit": "µM"}, {"measurement": "TGI", "setting": "SK-OV-3 ovarian", "result": "> 100", "unit": "µM"}, {"measurement": "TGI", "setting": "SN12C renal", "result": "> 100", "unit": "µM"}, {"measurement": "TGI", "setting": "SNB-19 CNS", "result": "> 100", "unit": "µM"}, {"measurement": "TGI", "setting": "SNB-75 CNS", "result": "> 100", "unit": "µM"}, {"measurement": "TGI", "setting": "SW-620 colon", "result": "> 100", "unit": "µM"}, {"measurement": "TGI", "setting": "T-47D breast", "result": "> 100", "unit": "µM"}, {"measurement": "TGI", "setting": "TK-10 renal", "result": "> 100", "unit": "µM"}, {"measurement": "TGI", "setting": "U251 CNS", "result": "> 100", "unit": "µM"}, {"measurement": "TGI", "setting": "UACC-257 melanoma", "result": "> 100", "unit": "µM"}, {"measurement": "TGI", "setting": "UACC-62 melanoma", "result": "> 100", "unit": "µM"}]}
